Measured values from patent US10053477B2, “Spirocyclic aryl phosphorus oxide and aryl phosphorus sulfide” (QILU PHARMACEUTICAL CO., LTD., priority 2014, dated 2018).
One block for each compound: values may come before it.

Experiments:
[1] = target: T1, EGFR T790M/L858R (Homo sapiens, UniProt P00533, L858R/T790M); experiment: EGFR T790M/L858R enzymatic inhibition (HTRF); type: biochemical; conditions: 20 μM ATP
T1 construct: purchased Life technology (Madison, Wis.)
Experimental: (§1) Enzyme: ALK wild-type, ALK C1156Y and ALK L1196M supplied by Carna Biosciences (Japan), EGFR T790M/L858R supplied by Life technology (Madison, Wis.).
(§2) HTRF kit: supplied by Cis-Bio International, with Eu-marked TK1 antibody, XL665- and biotin-labelled TK1 polypeptide substrates.
The compound to be tested is diluted at a gradient by 3 times thereby giving 11 gradients starting from […] to 0.017 nM for the final concentration.
10 μl EGFR T790M/L858R enzyme reaction mixture system: 0.08 nM EGFR T790M/L858R, 1 μM biotin-TK1 peptide, 20 μM ATP. Reaction buffer: 50 mM Hepes (pH7.5), 10 mM MgCl2, 0.01 mM NaV3VO4. The reaction plate was white Proxiplate 384-Plus plate (PerkinElmer). Reaction was reacted at room temperature for 60 minutes.
Detecting reaction: 10 μl testing reagent was added to the reaction plate, the final concentration of Antibody was 2 nM, XL665 was 62.5 nM. Incubation was carried out for 60 minutes at room temperature. Detection was by Envision.

[2] = target: T2, ALK L1196M (Homo sapiens, UniProt Q9UM73, L1196M); experiment: ALK L1196M enzymatic inhibition (HTRF); type: biochemical; conditions: 30 μM ATP
T2 construct: purchased Carna Biosciences (Japan)
Experimental: as §1, §2
Reaction buffer: 50 mM Hepes (pH7.5), 10 mM MgCl2, 0.01 mM NaV3VO4.
(§3) Incubation was carried out for 60 minutes at room temperature. Detection was by Envision.

[3] = target: T3, ALK C1156Y (Homo sapiens, UniProt Q9UM73, C1156Y); experiment: ALK C1156Y enzymatic inhibition (HTRF); type: biochemical; conditions: 30 μM ATP
T3 construct: purchased Carna Biosciences (Japan)
Experimental: as §1, §2
Reaction buffer: 50 mM Hepes (pH7.5), 10 mM MgCl2, 0.01 mM NaV3VO4. […] Reaction was reacted at room temperature for 60 minutes.
as §3

[4] = target: T4, ALK wild-type (Homo sapiens, UniProt Q9UM73); experiment: ALK wild-type enzymatic inhibition (HTRF); type: biochemical; conditions: 30 μM ATP
T4 construct: purchased Carna Biosciences (Japan)
Experimental: as §1, §2
10 μl wild-type ALK enzyme reaction mixture system: 0.5 nM wild-type ALK, 1 μM biotin-TK1 peptide, 30 μM ATP. Reaction buffer: 50 mM Hepes (pH7.5), 10 mM MgCl2, 0.01 mM NaV3VO4.
as §3

[5] = tested on: LU-01-0015 xenotransplantation (PDX) from lung cancer patients; experiment: In vivo efficacy, LU-01-0015 xenotransplantation (PDX) from lung cancer patients; parameters: species or system BALB/c nude mice; conditions: for Tumor volume: 25 mg/kg orally everyday
From the text: BALB/c nude mice, female, 6 to 8 weeks, about 18 to 22 g bodyweight, was kept in a special environment without pathogens, and a single ventilated cage (5 mice per cage). Beddings and water in all the cages were disinfected before use. […] 80 mice were supplied by Shanghai BK Laboratory Animal Co., LTD for study. Each mouse was subcutaneously implanted tumor tissue (20-30 mm^3) at right flank for growth of tumor. When the average tumor volume reached about 250-300 mm^3, the assay started. Test compounds were delivered orally everyday, 25 mg/kg. Tumor size was measured with two-dimensional caliper every 3 days, size was recorded by mm^3, and calculated by the following formula: V=V=0.5a×b2, where a and b are respectively the long diameter and short diameter length of the tumor. The antitumor efficacy was determined by dividing the average increased tumor volume in compound-treated animal by the average increased tumor volume in untreated animal.

[6] = tested on: LU-01-0319 xenotransplantation (PDX) from lung cancer patients; experiment: In vivo efficacy, LU-01-0319 xenotransplantation (PDX) from lung cancer patients; parameters: species or system BALB/c nude mice; conditions: 10 mg/kg orally everyday
From the text: BALB/c nude mice, female, 6 to 8 weeks, about 18 to 22 g bodyweight, was kept in a special environment without pathogens, and a single ventilated cage (5 mice per cage). Beddings and water in all the cages were disinfected before use. All the animal had free access to standard authorized commercially available lab diet. 80 mice were supplied by Shanghai BK Laboratory Animal Co., LTD for study. Each mouse was subcutaneously implanted tumor tissue (20-30 mm^3) at right flank for growth of tumor. When the average tumor volume reached about 250-300 mm^3, the assay started. Test compounds were delivered orally everyday, 10 mg/kg. Tumor size was measured with two-dimensional caliper every 3 days, size was recorded by mm^3, and calculated by the following formula: V=V=0.5a×b2, where a and b are respectively the long diameter and short diameter length of the tumor. The antitumor efficacy was determined by dividing the average increased tumor volume in compound-treated animal by the average increased tumor volume in untreated animal.

[7] = tested on: LU-01-0319 Crizotinib resistance model; experiment: In vivo anti-tumor efficacy, Crizotinib resistant LU-01-0319 xenotransplantation (PDX) tumor; parameters: species or system BALB/c nude mice
From the text: LU-01-0319 xenotransplantation tumor models initially obtained from clinical sample through surgical resection were implanted into nude mice, which was defined as a batch of P0 (LU-01-0319-P0). The next batch was defined as P1 (LU-01-0319-P1) which was implanted tumors from P0. FP3 was regained from P2, the next batch was defined as FP4 which was implanted tumors from FP3. […] The continuous increasing tumors were defined as LU-01-0319 antitumor models. BALB/c nude mice, female, 6 to 8 weeks, about 18 to 22 g bodyweight, 75 mice were used for study, supplied by Shanghai BK Laboratory Animal Co., LTD. Tumour biopsies (about 30 mm^3) of LU-01-0319R FP6 were implanted subcutaneously on right side of each mouse for growth of tumor. […] Dose of Crizotinib was appropriately varied depending on the tumor size. When average tumor volume reached about ˜500 mm^3, the assay began. Once a day the compounds to be tested were orally administered. Tumor size were measured twice a week with a caliper at two dimensions, and calculated with the following formula: V=0.5a×b2, where a and b are respectively long diameter and short diameter of the tumor. The antitumor efficacy was determined by dividing the average increased tumor volume in compound-treated animal by the average increased tumor volume in untreated animal.

T1 sequence (P00533 25-1210 T790M/L858R): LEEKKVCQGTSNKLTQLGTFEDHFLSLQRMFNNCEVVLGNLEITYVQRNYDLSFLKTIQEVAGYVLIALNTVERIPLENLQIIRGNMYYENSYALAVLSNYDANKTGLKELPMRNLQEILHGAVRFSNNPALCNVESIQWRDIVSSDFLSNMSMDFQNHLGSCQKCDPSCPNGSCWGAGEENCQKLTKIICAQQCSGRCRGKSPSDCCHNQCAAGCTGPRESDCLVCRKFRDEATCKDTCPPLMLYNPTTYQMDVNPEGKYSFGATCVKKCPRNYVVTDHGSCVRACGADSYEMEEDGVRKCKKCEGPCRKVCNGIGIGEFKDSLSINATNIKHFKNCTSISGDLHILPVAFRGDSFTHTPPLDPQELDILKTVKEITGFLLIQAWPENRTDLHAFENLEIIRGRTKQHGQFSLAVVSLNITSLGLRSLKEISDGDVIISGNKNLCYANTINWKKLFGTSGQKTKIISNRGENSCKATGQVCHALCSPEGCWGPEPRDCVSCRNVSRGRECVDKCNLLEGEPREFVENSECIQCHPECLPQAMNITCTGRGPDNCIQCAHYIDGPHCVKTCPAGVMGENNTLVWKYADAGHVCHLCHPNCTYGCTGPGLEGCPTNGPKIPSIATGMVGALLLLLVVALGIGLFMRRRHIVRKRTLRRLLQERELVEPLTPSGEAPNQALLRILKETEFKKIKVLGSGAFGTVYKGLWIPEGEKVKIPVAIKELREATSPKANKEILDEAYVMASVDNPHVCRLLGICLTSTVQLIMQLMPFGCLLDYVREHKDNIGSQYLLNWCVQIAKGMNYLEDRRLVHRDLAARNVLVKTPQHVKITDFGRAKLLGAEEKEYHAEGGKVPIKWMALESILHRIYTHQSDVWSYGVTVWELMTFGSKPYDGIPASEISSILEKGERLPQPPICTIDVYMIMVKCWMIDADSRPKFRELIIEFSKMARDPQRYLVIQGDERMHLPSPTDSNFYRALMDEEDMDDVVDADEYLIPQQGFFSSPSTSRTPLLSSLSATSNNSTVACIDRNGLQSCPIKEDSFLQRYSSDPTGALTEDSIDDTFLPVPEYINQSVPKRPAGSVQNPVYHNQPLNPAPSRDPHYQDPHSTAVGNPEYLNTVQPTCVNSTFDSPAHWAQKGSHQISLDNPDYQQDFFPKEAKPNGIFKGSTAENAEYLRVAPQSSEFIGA
T4 sequence (Q9UM73 19-1620): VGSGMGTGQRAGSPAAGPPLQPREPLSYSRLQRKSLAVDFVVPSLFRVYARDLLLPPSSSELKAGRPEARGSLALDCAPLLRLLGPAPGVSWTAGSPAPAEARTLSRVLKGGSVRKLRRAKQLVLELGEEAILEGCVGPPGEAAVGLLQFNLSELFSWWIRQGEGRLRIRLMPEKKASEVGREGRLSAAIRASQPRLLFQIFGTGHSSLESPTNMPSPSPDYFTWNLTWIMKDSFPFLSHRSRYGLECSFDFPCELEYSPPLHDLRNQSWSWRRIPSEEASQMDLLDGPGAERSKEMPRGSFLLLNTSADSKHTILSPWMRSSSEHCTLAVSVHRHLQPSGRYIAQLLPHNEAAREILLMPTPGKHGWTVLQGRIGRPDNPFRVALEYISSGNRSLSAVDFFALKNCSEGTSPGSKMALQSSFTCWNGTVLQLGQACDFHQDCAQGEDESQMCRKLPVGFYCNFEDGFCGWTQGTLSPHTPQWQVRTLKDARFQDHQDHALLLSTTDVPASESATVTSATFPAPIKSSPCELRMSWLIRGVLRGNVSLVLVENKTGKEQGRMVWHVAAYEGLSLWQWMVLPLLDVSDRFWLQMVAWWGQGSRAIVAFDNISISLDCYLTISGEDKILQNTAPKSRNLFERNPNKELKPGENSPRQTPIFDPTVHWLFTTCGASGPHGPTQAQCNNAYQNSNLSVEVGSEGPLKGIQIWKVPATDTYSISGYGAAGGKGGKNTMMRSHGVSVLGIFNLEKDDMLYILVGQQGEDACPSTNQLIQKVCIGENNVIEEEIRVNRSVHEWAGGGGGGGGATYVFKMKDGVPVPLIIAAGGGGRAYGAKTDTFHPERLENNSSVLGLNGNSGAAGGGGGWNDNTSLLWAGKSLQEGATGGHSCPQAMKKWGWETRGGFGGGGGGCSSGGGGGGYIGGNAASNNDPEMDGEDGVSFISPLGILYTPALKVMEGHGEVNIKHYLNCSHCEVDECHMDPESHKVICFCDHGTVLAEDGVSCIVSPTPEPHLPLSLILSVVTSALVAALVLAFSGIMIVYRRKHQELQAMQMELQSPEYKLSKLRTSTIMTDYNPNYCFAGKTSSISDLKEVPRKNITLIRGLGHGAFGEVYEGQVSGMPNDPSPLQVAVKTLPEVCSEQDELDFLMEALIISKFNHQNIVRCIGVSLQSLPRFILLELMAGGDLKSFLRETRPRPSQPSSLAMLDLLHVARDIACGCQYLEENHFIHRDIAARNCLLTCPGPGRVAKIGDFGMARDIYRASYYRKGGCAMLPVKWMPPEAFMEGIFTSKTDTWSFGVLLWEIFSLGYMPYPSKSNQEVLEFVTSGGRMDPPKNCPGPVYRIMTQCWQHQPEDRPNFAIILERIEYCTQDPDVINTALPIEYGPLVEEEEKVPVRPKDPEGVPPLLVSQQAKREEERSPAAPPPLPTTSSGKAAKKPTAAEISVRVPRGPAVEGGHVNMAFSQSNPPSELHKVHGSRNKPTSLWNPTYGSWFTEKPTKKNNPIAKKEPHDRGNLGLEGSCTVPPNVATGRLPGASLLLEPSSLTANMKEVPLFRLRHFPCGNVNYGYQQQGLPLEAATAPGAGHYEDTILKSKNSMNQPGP
T3 sequence (Q9UM73 19-1620 C1156Y): as the sequence (Q9UM73 19-1620) above, with C1138Y counted along it
T2 sequence (Q9UM73 19-1620 L1196M): as the sequence (Q9UM73 19-1620) above, with L1178M counted along it

Structure (SMILES): COc1cc(C2CC3(CCN(C)CC3)C2)c(F)cc1Nc1ncc(Cl)c(Nc2ccccc2P(C)(C)=O)n1 [Compound 29, (2-((5-Chloro-2-((5-fluoro-2-methoxy-4-(7-methyl-7-azaspiro[3.5]nonan-2-yl)phenyl)amino)pyrimidin-4-yl)amino)phenyl)dimethyl phosphine oxide]
- IC50 [1]: 1 to 100 nM
- IC50 [2]: 1 to 100 nM
- IC50 [3]: 1 to 100 nM
- IC50 [4]: 1 to 100 nM

Structure (SMILES): COc1cc(N2CCC(N3CCN(C)CC3)CC2)ccc1Nc1ncc(Cl)c(Nc2ccccc2P(C)(C)=O)n1 [AP26113, reference compound]
- Tumor volume ([5]; 3 days): 207 mm^3
- Tumor volume ([5]; 6 days): 174 mm^3
- Tumor volume ([5]; 9 days): 162 mm^3
- Tumor volume ([5]; 12 days): 142 mm^3
- Tumor volume ([5]; 16 days): 119 mm^3
- Tumor volume ([5]; 19 days): 122 mm^3
- Tumor volume ([5]; 23 days): 119 mm^3
- tumor volume was reduced to (from 277 mm^3) ([5]; after 16 days, 25 mg/kg): 119 mm^3
- Tumor volume ([6]; 0 days): 371 mm^3
- Tumor volume ([6]; 2 days): 437 mm^3
- Tumor volume ([6]; 6 days): 448 mm^3
- Tumor volume ([6]; 9 days): 485 mm^3
- Tumor volume ([6]; 13 days): 512 mm^3
- Tumor volume ([6]; 16 days): 492 mm^3
- Tumor volume ([6]; 20 days): 457 mm^3
- Tumor volume ([6]; 23 days): 391 mm^3
- Tumor volume ([7]; 0 day, dosage 3 mg/Kg orally once a day): 501 mm^3
- Tumor volume ([7]; 0 day, dosage 10 mg/Kg orally once a day): 502 mm^3
- Tumor volume ([7]; 3 days, dosage 3 mg/Kg orally once a day): 656 mm^3
- Tumor volume ([7]; 3 days, dosage 10 mg/Kg orally once a day): 646 mm^3
- Tumor volume ([7]; 7 days, dosage 3 mg/Kg orally once a day): 690 mm^3
- Tumor volume ([7]; 7 days, dosage 10 mg/Kg orally once a day): 604 mm^3
- Tumor volume ([7]; 10 days, dosage 3 mg/Kg orally once a day): 898 mm^3
- Tumor volume ([7]; 10 days, dosage 10 mg/Kg orally once a day): 593 mm^3
- Tumor volume ([7]; 13 days, dosage 3 mg/Kg orally once a day): 1096 mm^3
- Tumor volume ([7]; 13 days, dosage 10 mg/Kg orally once a day): 504 mm^3
- Tumor volume ([7]; 17 days, dosage 3 mg/Kg orally once a day): 1415 mm^3
- Tumor volume ([7]; 17 days, dosage 10 mg/Kg orally once a day): 568 mm^3
- Tumor volume ([7]; 19 days, dosage 3 mg/Kg orally once a day): 1499 mm^3
- Tumor volume ([7]; 19 days, dosage 10 mg/Kg orally once a day): 508 mm^3

Structure (SMILES): Cc1cc(Nc2ncc(Cl)c(Nc3ccccc3S(=O)(=O)C(C)C)n2)c(OC(C)C)cc1C1CCNCC1 [LDK378]
- Tumor volume ([6]; 0 days): 373 mm^3
- Tumor volume ([6]; 2 days): 397 mm^3
- Tumor volume ([6]; 6 days): 366 mm^3
- Tumor volume ([6]; 9 days): 350 mm^3
- Tumor volume ([6]; 13 days): 425 mm^3
- Tumor volume ([6]; 16 days): 369 mm^3
- Tumor volume ([6]; 20 days): 329 mm^3
- Tumor volume ([6]; 23 days): 268 mm^3

Structure (SMILES): COc1cc(N2CCC3(CC2)CCN(C(C)C)CC3)ccc1Nc1ncc(Cl)c(Nc2ccccc2P(C)(C)=O)n1 [Compound 10, (2-((5-Chloro-2-((4-(9-isopropyl-3,9-diazaspiro[5.5]undecan-3-yl)-2-methoxyphenyl)amino)pyrimidin-4-yl)amino)phenyl)dimethyl phosphine oxide]
- IC50 [1]: 1 to 100 nM
- IC50 [2]: 1 to 100 nM
- IC50 [3]: 1 to 100 nM
- IC50 [4]: 1 to 100 nM

Structure (SMILES): COc1cc(N2CCC3(CCN(C)CC3)CC2)ccc1Nc1ncc(C(F)(F)F)c(Nc2ccccc2P(C)(C)=O)n1 [Compound 15, (2-((2-((2-Methoxy-4-(9-methyl-3,9-diazaspiro[5.5]undecan-3-yl)phenyl)amino)-5-(trifluoromethyl)pyrimidin-4-yl)amino)phenyl)dimethyl phosphine oxide]
- IC50 [1]: > 1000 nM
- IC50 [2]: 101 to 1000 nM
- IC50 [3]: > 1000 nM
- IC50 [4]: > 1000 nM

Second part, the compound after the results:

- IC50 [1]: > 1000 nM
- IC50 [2]: > 1000 nM
- IC50 [3]: > 1000 nM
- IC50 [4]: > 1000 nM
Structure (SMILES): COc1cc(N2CCC3(CCN(C)CC3)CC2)ccc1Nc1ncc(Cl)c(N(C)c2ccccc2P(C)(C)=O)n1 [Compound 18, (2-((5-Chloro-2-((2-methoxy-4-(9-methyl-3,9-diazaspiro[5.5]undecan-3-yl)phenyl)amino)pyrimidin-4-yl)(methyl)amino)phenyl)dimethyl phosphine oxide]

- IC50 [1]: 1 to 100 nM
- IC50 [2]: 1 to 100 nM
- IC50 [3]: 1 to 100 nM
- IC50 [4]: 1 to 100 nM
Structure (SMILES): COc1cc(N2CCC3(CCN(C)CC3)CC2)c(Br)cc1Nc1ncc(Cl)c(Nc2ccccc2P(C)(C)=O)n1 [Compound 21, (2-((2-((5-Bromo-2-methoxy-4-(9-methyl-3,9-diazaspiro[5.5]undecan-3-yl)phenyl)amino)-5-chloropyrimidin-4-yl)amino)phenyl)dimethyl phosphine oxide]

- IC50 [1]: 101 to 1000 nM
- IC50 [2]: 101 to 1000 nM
- IC50 [3]: 101 to 1000 nM
- IC50 [4]: 1 to 100 nM
Structure (SMILES): COc1ccc(C2CC3(CCN(C)C3)C2)cc1Nc1ncc(Cl)c(Nc2ccccc2P(C)(C)=O)n1 (centres unmarked) [Compound 1, (2-((5-chloro-2-((2-methoxy-5-(6-methyl-6-azaspiro[3.4]octan-2-yl)phenyl)amino)pyrimidin-4-yl)amino)phenyl)dimethylphosphine oxide]

- IC50 [1]: 1 to 100 nM
- IC50 [2]: 1 to 100 nM
- IC50 [3]: 1 to 100 nM
- IC50 [4]: 1 to 100 nM
Structure (SMILES): CN1CCC2(CCC(c3ccc(Nc4ncc(Cl)c(Nc5ccccc5P(C)(C)=O)n4)c(OC(F)F)c3)CC2)CC1 [Compound 28, (2-((5-Chloro-2-((2-(difluoromethoxy)-4-(3-methyl-3-azaspiro[5.5]undecan-9-yl)phenyl)amino)pyrimidin-4-yl)amino)phenyl)dimethyl phosphine oxide]

- IC50 [1]: > 1000 nM
- IC50 [2]: > 1000 nM
- IC50 [3]: > 1000 nM
- IC50 [4]: > 1000 nM
Structure (SMILES): COc1cc(N2CCC3(CCN(C)CC3)CC2)ccc1Nc1ncc(Cl)c(Oc2ccccc2P(C)(C)=O)n1 [Compound 19, (2-((5-Chloro-2-((2-methoxy-4-(9-methyl-3,9-diazaspiro[5.5]undecan-3-yl)phenyl)amino)pyrimidin-4-yl)oxy)phenyl)dimethyl phosphine oxide]

- IC50 [1]: 101 to 1000 nM
- IC50 [2]: 101 to 1000 nM
- IC50 [3]: 101 to 1000 nM
- IC50 [4]: 101 to 1000 nM
Structure (SMILES): COc1ccc(C2CC3(CC(=O)N(C)C3)C2)cc1Nc1ncc(Cl)c(Nc2ccccc2P(C)(C)=O)n1 (centres unmarked) [Compound 2, 2-(3-((5-Chloro-4-((2-(dimethylphosphoryl)phenyl)amino)pyrimidin-2-yl)amino)-4-methoxyphen-yl)-6-methyl-6-azaspiro[3.4]octan-7-one]
